Legend:
ALOMY = experiment: Pre-emergence herbicidal action against ALOMY; format: in vivo, Alopecurus myosuroides; details: pre-emergence
Method in brief: (§1)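 Sandy loam pots, seeds covered with soil, then surface-treated with WP or EC formulations at 600–800 l/ha water plus 0.2% wetting agent. Greenhouse, 3 weeks. Percent damage vs untreated controls.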

VIOTR = experiment: Pre-emergence herbicidal action against VIOTR; format: in vivo, Viola tricolor
Method in brief: as §1

AMARE [1] = experiment: Post-emergence herbicidal action against AMARE; format: in vivo, Amaranthus retroflexus; details: 20 g/ha, visual assessment about 3 weeks after treatment, 100% = plants have died, 0% = like control plants; for pest or weed control at 20 g/ha: Amaranthus retroflexus, 504 h
Method in brief: (§2)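 Visual % rating (0% = as untreated, 100% = dead) ~3 wk after spraying one-leaf-stage plants grown in sandy loam; WP/EC in water at 600–800 l/ha, 0.2% wetting agent.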

PHBPU [2] = experiment: Pre-emergence herbicidal action against PHBPU; format: in vivo, Pharbitis purpurea; details: dosage 80 g/ha; for pest or weed control at 80 g/ha: Ipomoea purpurea, 504 h
Method in brief: as §1

VERPE = experiment: Pre-emergence herbicidal action against VERPE; format: in vivo, Veronica persica; details: for Pre-emergence action against VERPE in % / pest or weed control at 80 g/ha: dosage 80 g/ha
Method in brief: as §1

MATIN [3] = experiment: Pre-emergence herbicidal action against MATIN; format: in vivo, Matricaria inodora; details: for pest or weed control at 20 g/ha / pest or weed control at 80 g/ha: Tripleurospermum inodorum, 504 h
Method in brief: as §1

SETVI [4] = experiment: Pre-emergence herbicidal action against SETVI; format: in vivo, Setaria viridis; details: dosage 80 g/ha
Method in brief: as §1

DIGSA [5] = experiment: Pre-emergence herbicidal action against DIGSA; format: in vivo, Digitaria sanguinalis
Method in brief: as §1

PHBPU [6] = experiment: Post-emergence herbicidal action against PHBPU; format: in vivo, Pharbitis purpurea; details: dosage 20 g/ha
Method in brief: as §2

POLCO = experiment: Pre-emergence herbicidal action against POLCO; format: in vivo, Polygonum convolvulus; details: dosage 80 g/ha; for pest or weed control at 80 g/ha: Fallopia convolvulus, 504 h
Method in brief: as §1

ECHCG [7] = experiment: Post-emergence herbicidal action against ECHCG; format: in vivo, Echinochloa crus-galli
Method in brief: as §2

AMARE [8] = experiment: Pre-emergence herbicidal action against AMARE; format: in vivo, Amaranthus retroflexus; details: for pest or weed control at 20 g/ha / pest or weed control at 80 g/ha: Amaranthus retroflexus, 504 h
Method in brief: as §1

ECHCG [9] = experiment: Pre-emergence herbicidal action against ECHCG; format: in vivo, Echinochloa crus-galli
Method in brief: as §1

ABUTH [10] = experiment: Pre-emergence herbicidal action against ABUTH; format: in vivo, Abutilon theophrasti; details: for Pre-emergence action against ABUTH (herbicidal activity) / pest or weed control at 80 g/ha: 80 g/ha, scored visually after 3 weeks vs untreated controls (100% = plants have died, 0% = like control plants); for Pre-emergence action against ABUTH (herbicidal activity in percent) / pest or weed control at 20 g/ha: dosage 20 g/ha, scored visually after 3 weeks vs untreated controls, 100% = plants have died, 0% = like control plants; for pest or weed control at 80 g/ha / pest or weed control at 20 g/ha: Abutilon theophrasti, 504 h; for pest or weed control at 20 g/ha: read-out: Pre-emergence action against ABUTH (herbicidal activity in percent)
Method in brief: as §1

MATIN [11] = experiment: Post-emergence herbicidal action against MATIN; format: in vivo, Matricaria inodora; details: dosage 20 g/ha
Method in brief: as §2

DIGSA [12] = experiment: Post-emergence herbicidal action against DIGSA; format: in vivo, Digitaria sanguinalis; details: 20 g/ha
Method in brief: as §2

ABUTH [13] = experiment: Post-emergence herbicidal action against ABUTH; format: in vivo, Abutilon theophrasti; details: dosage 20 g/ha, visual assessment about 3 weeks after treatment vs untreated controls
Method in brief: as §2

SETVI [14] = experiment: Post-emergence herbicidal action against SETVI; format: in vivo, Setaria viridis; details: dosage 20 g/ha
Method in brief: as §2

AVEFA = experiment: Pre-emergence herbicidal action against AVEFA; format: in vivo, Avena fatua; details: Avena fatua, 504 h, pre-emergence
Method in brief: as §1

[15] = 80 g/ha, scored visually after 3 weeks vs untreated controls (100% = plants have died, 0% = like control plants)
[16] = 20 g/ha, scored visually after 3 weeks vs untreated controls, 100% = plants have died, 0% = like control plants
[17] = 80 g/ha, scored visually after 3 weeks vs untreated controls, 100% = plants have died, 0% = like control plants

SMILES	Pre-emergence action against ALOMY (herbicidal activity) (ALOMY; [15])	Pre-emergence action against VIOTR in % (VIOTR; dosage 80 g/ha)	Post-emergence action at 20 g/ha against AMARE in % (AMARE [1])	Pre-emergence action against PHBPU in % (PHBPU [2])	Pre-emergence action against VERPE in % (VERPE)	Pre-emergence action against MATIN in % (MATIN [3]; dosage 20 g/ha)	Pre-emergence action against MATIN in % (MATIN [3]; dosage 80 g/ha)	Pre-emergence action against SETVI in % (SETVI [4])	Pre-emergence action against DIGSA in % (DIGSA [5]; dosage 20 g/ha)	Pre-emergence action against DIGSA in % (DIGSA [5]; dosage 80 g/ha)	Pre-emergence action against POLCO in % (POLCO)	Post-emergence action against ECHCG in % (ECHCG [7]; dosage 5 g/ha)	Post-emergence action against ECHCG in % (ECHCG [7]; dosage 20 g/ha)	Pre-emergence action against AMARE in % (AMARE [8]; [16])	Pre-emergence action against AMARE in % (AMARE [8]; [15])	Pre-emergence action against ECHCG in % (ECHCG [9]; 80 g/ha)	Pre-emergence action against ABUTH (herbicidal activity) (ABUTH [10])	Pre-emergence action against ABUTH (herbicidal activity in percent) (ABUTH [10])	pest or weed control at 20 g/ha (AMARE [1])	pest or weed control at 80 g/ha (PHBPU [2])	other results
CCn1nnnc1NC(=O)c1ccc(C(F)(F)F)c(C(=O)NCCOC)c1Cl [Example 2-138]	90%	100%	90%	80%	100%	90%	100%	80%	100%	100%	90%	80%	90%	100%	100%	90%	100%	80%			Pre-emergence action against VIOTR in % (VIOTR; dosage 20 g/ha): 90%; Post-emergence action against PHBPU in % (PHBPU [6]): 80%
CCn1nnnc1NC(=O)c1ccc(C(F)F)c(C(=O)NC2CCC2)c1Cl [Example 2-164]		100%	90%	100%	100%	100%	100%	80%		100%	90%		80%	100%	100%	80%	100%	90%			Post-emergence action against MATIN in % (MATIN [11]): 80%
Cn1nnnc1NC(=O)c1ccc(C(F)F)c(C(=O)Nc2ccccc2)c1Cl [Example 1-161]																			90%	80%	pest or weed control at 20 g/ha (VERPE; Veronica persica, 504 h, dosage 20 g/ha): 80%; pest or weed control at 80 g/ha (VERPE; Veronica persica, 504 h): 90%; pest or weed control at 20 g/ha (MATIN [3]; dosage 20 g/ha): 90%; pest or weed control at 80 g/ha (MATIN [3]; dosage 80 g/ha): 100%; pest or weed control at 80 g/ha (POLCO): 80%; pest or weed control at 20 g/ha (AMARE [8]; [16]): 100%; pest or weed control at 80 g/ha (AMARE [8]; [17]): 100%; pest or weed control at 80 g/ha (ABUTH [10]): 90%; pest or weed control at 20 g/ha (ABUTH [10]): 80%
CCCNC(=O)c1c(C(F)F)ccc(C(=O)Nc2nnc(C)o2)c1Cl [Example 6-259]	80%	80%	100%	80%		90%	100%	100%	100%	100%	90%	80%	90%	100%	100%	100%	100%	90%			Post-emergence action against DIGSA (DIGSA [12]): 90%; Post-emergence action against ABUTH in % (ABUTH [13]): 80%; Post-emergence action against SETVI in % (SETVI [14]): 90%
Cn1nnnc1NC(=O)c1ccc(C(F)(F)F)c(C(=O)NCC(F)(F)F)c1Br [Example 1-211]																			90%	80%	pest or weed control at 80 g/ha (ALOMY; Alopecurus myosuroides, 504 h, 80 g/ha, scored visually after 3 weeks vs untreated controls (100% = plants have died, 0% = like control plants)): 100%; pest or weed control at 20 g/ha (ALOMY; Alopecurus myosuroides, 504 h, 20 g/ha, scored visually after 3 weeks, 100% = plants have died, 0% = like control plants): 90%; pest or weed control at 80 g/ha (VIOTR; Viola tricolor, 504 h, dosage 80 g/ha): 100%; pest or weed control at 80 g/ha (VERPE; Veronica persica, 504 h): 100%; pest or weed control at 20 g/ha (ABUTH [13]; Abutilon theophrasti, 504 h): 80%; pest or weed control at 20 g/ha (MATIN [3]; dosage 20 g/ha): 90%; pest or weed control at 80 g/ha (MATIN [3]; dosage 80 g/ha): 100%; pest or weed control at 80 g/ha (SETVI [4]; Setaria viridis, 504 h): 100%; pest or weed control at 80 g/ha (AVEFA; 80 g/ha): 90%; pest or weed control at 20 g/ha (AVEFA; 20 g/ha, scored visually after 3 weeks, 100% = plants have died, 0% = like control plants): 80%; pest or weed control at 80 g/ha (POLCO): 90%; pest or weed control at 5 g/ha (ECHCG [7]; Echinochloa crus-galli, 504 h, dosage 5 g/ha): 80%; pest or weed control at 20 g/ha (ECHCG [7]; Echinochloa crus-galli, 504 h, dosage 20 g/ha): 90%; pest or weed control at 20 g/ha (AMARE [8]; [16]): 100%; pest or weed control at 80 g/ha (AMARE [8]; [17]): 100%; pest or weed control at 20 g/ha (ECHCG [9]; Echinochloa crus-galli, 504 h, 20 g/ha): 90%; pest or weed control at 80 g/ha (ECHCG [9]; Echinochloa crus-galli, 504 h, 80 g/ha): 100%; pest or weed control at 80 g/ha (ABUTH [10]): 100%; pest or weed control at 20 g/ha (ABUTH [10]): 100%

— patent publication US12655116B2, “Substituted isophthalic acid diamides” (Bayer Aktiengesellschaft, priority 2020, dated 2026)
